# Measured values taken from patent publication US6750224B1, “Antibacterial optically pure benzoquinolizine carboxylic acids, processes, compositions and methods of treatment” (priority 1999, dated 2004).
# Marks after values point to notes of the source that are not given here.
# Legend:
# [1] = pH 6.8
# in vivo = assay: in vivo; parameters: species or system Swiss mice; conditions: mouse
# Method: The blood levels of RS-(±)-Nadifloxacin and S-(−)-Nadifloxacin administered orally to Swiss mice at a dose of 30mg/kg are shown in Table 3 with respect to the AUC (μg/ml.hr), monitored from 15 minutes to 4 hours.
# [2] = test system: human liver cell-line Hep-G2; assay: Human liver cell line cytotoxicity assay (Minimum Toxic Dose); type: cell-based; conditions: 3 hours exposure, 4 days incubation, Almar blue
# Method: The procedure involved cultivation of cells of human liver cell-line Hep-G2 in DMEM medium containing 5% foetal bovine and exposure to various concentrations of trovafloxacin and S-(−)-Nadifloxacin for 3 hours. The drug containing medium was then replaced with a fresh medium and cells were incubated in 5% CO2 atmosphere at 37° C. for 4 days. Almar blue dye which is an indicative of active respiration was then added to individual sample to access the toxicity of the drugs. The hepatotoxic potential of a drug is expressed in terms of Minimum Toxic Dose (MTD) which is defined as minimum concentration of a drug which brings about inhibition of colour change from blue to pink.
# [3] = test system: Mupirocin-resistant Staph STA-34; assay: In-vitro antimicrobial activity test (MIC, NCCLS); type: cell-based, Staphylococcus aureus
# Description: (§1) The test method was in accordance with the standard NCCLS protocol.
# MRSA STA-4 = assay: In-vitro antimicrobial activity test (MIC, NCCLS); type: cell-based, Staphylococcus aureus
# Description: as §1
# [4] = mouse, in vivo
# [5] = test system: Gram-positive pathogens such as staphylococci and enterococci, and Gram-negative pathogens such as E.coli, Klebsiella, Proteus, Serratia, Citrobacter, and …; assay: Antibacterial potency (MIC) at acidic pH of 5.5, summary; type: cell-based; conditions: acidic pH of 5.5, some organisms
# [6] = Acute intravenous toxicity in mice; conditions: acute intravenous, mice
# [7] = in vivo
# [8] = test system: S.aureus strain bearing Nor A efflux pump; type: cell-based; conditions: Nor A efflux pump strain vs strain devoid of efflux pump
# Method: Using this set of MIC values, % loss in potency due to efflux was calculated for each of the fluoroquinolone in Table 5
# Serratia marcescens 2702 = assay: Effect of pH on potency of fluoroquinolones (MIC at pH 5.5 and 7.0); type: cell-based; conditions: MIC pH 7 vs pH 5.5
# Description: (§2) The test method was in accordance with the standard NCCLS protocol employing test media adjusted at pH 5.5 and 7.0.
# P. rettgeri N 1764 = assay: as above; type: cell-based; conditions: MIC pH 7 vs pH 5.5
# Description: as §2
# [9] = test system: Gram-positive and Gram-negative bacteria; conditions: cited from earlier work
# [10] = test system: Staphylococcus aureus ATCC 25923; assay: In-vitro antimicrobial activity test (MIC, NCCLS); type: cell-based
# Description: as §1
# Pseudomonas aeruginosa = assay: In-vitro antimicrobial activity test (MIC, NCCLS); type: cell-based
# Description: as §1
# [11] = test system: Mycobacterium intracellulare; assay: In-vitro antimicrobial activity test (MIC, NCCLS); type: cell-based
# Description: as §1
# Streptococcus pyogenes = assay: In-vitro antimicrobial activity test (MIC, NCCLS); type: cell-based
# Description: as §1
# [12] = test system: Chryseobacterium meningosepticum; assay: In-vitro antimicrobial activity test (MIC, NCCLS); type: cell-based
# Description: as §1
# Haemophilus influenzae = assay: In-vitro antimicrobial activity test (MIC, NCCLS); type: cell-based
# Description: as §1
# Propioni bacterium acnes = assay: In-vitro antimicrobial activity test (MIC, NCCLS); type: cell-based
# Description: as §1
# Mycobacterium avium = assay: In-vitro antimicrobial activity test (MIC, NCCLS); type: cell-based
# Description: as §1
# Enterococcus faecium = assay: In-vitro antimicrobial activity test (MIC, NCCLS); type: cell-based
# Description: as §1
# [13] = test system: Enterococcus faecalis ATCC 29212; assay: In-vitro antimicrobial activity test (MIC, NCCLS); type: cell-based
# Description: as §1
# [14] = test system: Viridans group Streptococci; assay: In-vitro antimicrobial activity test (MIC, NCCLS); type: cell-based
# Description: as §1
# [15] = test system: Streptococcus pneumoniae ATCC 6303; assay: In-vitro antimicrobial activity test (MIC, NCCLS); type: cell-based
# Description: as §1
# [16] = test system: Escherichia coli ATCC 25922; assay: In-vitro antimicrobial activity test (MIC, NCCLS); type: cell-based
# Description: as §1
# [17] = test system: Mycobacterium tuberculosis ATCC 27294; assay: In-vitro antimicrobial activity test (MIC, NCCLS); type: cell-based
# Description: as §1
# Bacteroides fragilis = assay: In-vitro antimicrobial activity test (MIC, NCCLS); type: cell-based
# Description: as §1
# Corynebacterium jeikeium = assay: In-vitro antimicrobial activity test (MIC, NCCLS); type: cell-based
# Description: as §1
# Serratia marcescens = assay: In-vitro antimicrobial activity test (MIC, NCCLS); type: cell-based
# Description: as §1
# MRSE STE-22 = assay: In-vitro antimicrobial activity test (MIC, NCCLS); type: cell-based, Staphylococcus epidermidis
# Description: as §1
smiles,measurement,setting,value
"CC(=O)O.C[C@@H](N)C(=O)OC1CCN(c2c(F)cc3c(=O)c(C(=O)O)cn4c3c2CC[C@@H]4C)CC1 [Example 30, 8-{4-[2(R)-Amino-propionyloxy]piperidin-1-yl}-9-fluoro-5(S)-methyl-6,7-dihydro-1-oxo-1H,5H-benzo[i,j]quinolizine-2-carboxylic acid, acetate]",Water solubility,[1],>250 mg/mL
"C[C@H]1CCc2c(N3CCC(O)CC3)c(F)cc3c(=O)c(C(=O)O)cn1c23 [S-(−)-Nadifloxacin, S-(−)-9-fluoro-8-(4-hydroxy-piperidin-1-yl)-5-methyl-6,7-dihydro-1-oxo-1H,5H benzo[i,j]quinolizine-2-carboxylic acid]","oral bioavailability, times higher than RS-(±)-Nadifloxacin",in vivo,2 times
same,AUC,"in vivo; po, 30 mg/kg",33580 ng·h/mL
same,"dosage tolerated by Hep-G-2 cells, times higher than trovafloxacin",[2],4 times
same,MIC,[3],0.4 µg/mL
same,MIC,MRSA STA-4,0.4 µg/mL
same,acute intravenous toxicity compared with RS-(±)-Nadifloxacin,[4],significantly lower
same,MIC improves by,[5],100%
same,LD50,[6],>400* mg/kg
same,phototoxicity potential,[7],negligible phototoxicity potential
same,% loss in potency for S. aureus bearing Efflux pump,[8],0%
same,"% change in potency at pH 5.5, loss (−)/gain (+)",Serratia marcescens 2702,0.00%
same,"% change in potency at pH 5.5, loss (−)/gain (+)",P. rettgeri N 1764,0.00%
same,in-vitro activity compared with racemic Nadifloxacin,[9],approximtely twice as active
same,MIC,[10],0.025 µg/mL
same,MIC,Pseudomonas aeruginosa,1.56 µg/mL
same,MIC,[11],1.56 µg/mL
same,MIC,Streptococcus pyogenes,0.2 µg/mL
same,MIC,[12],0.8 µg/mL
same,MIC,Haemophilus influenzae,0.025 µg/mL
same,MIC,Propioni bacterium acnes,0.1 µg/mL
same,MIC,Mycobacterium avium,3.12 µg/mL
same,MIC,Enterococcus faecium,0.4 µg/mL
same,MIC,[13],0.2 µg/mL
same,MIC,[14],0.2 µg/mL
same,MIC,[15],0.2 µg/mL
same,MIC,[16],0.2 µg/mL
same,MIC,[17],0.8 µg/mL
same,MIC,Bacteroides fragilis,0.8 µg/mL
same,MIC,Corynebacterium jeikeium,0.05 µg/mL
same,MIC,Serratia marcescens,0.4 µg/mL
same,MIC,MRSE STE-22,0.4 µg/mL
